Common to all, as to type: cell-based
Assay [1] concerns C2C12 mouse myoblasts. Kind of assay: Nanonet probe system: single-cell force evolution under cyclic sub-failure stretch with drug. The note with it: 30-minute period; for reduction in force: cycled at 1× (one stretch per two minutes), strain rate 2 μm/s. The source says:
The use of a suspended nanonet platform for measuring C2C12 mouse myoblast forces attached to fibers of three diameters (250, 400, and 800 nm) representing a wide range of structural stiffness (3-50 nN/μm) in connection with the NFM is developed to allow investigations in cell adhesion forces in response to symmetric and asymmetric external perturbation in single and cyclic modes at high magnifications in real time. The combined findings are two-fold: (i) contractility-based inside-out forces are evenly distributed at the edges of the cell, and that overall force magnitudes are dependent on fiber structural stiffness, and (ii) external perturbation in symmetric and asymmetric modes biases cell-fiber failure location, without affecting the outside-in forces of cell-fiber adhesion (FIG. 5). Further measured are forces of (i) cell-cell junctions, (ii) cyclic perturbation of single cells in presence of drugs, and (iii) cancerous single-cells transitioning from a blebbing to pseudopodial morphology.
Polymeric solutions of polystyrene (Scientific Polymer Products Inc., Ontario, N.Y., Mw: 2×10^6 g·mol^−1) dissolved in xylene (Fisher Scientific, Pittsburgh, Pa.) at 14% and 5% (w/w) were prepared. Plastic coverslips (Fisher Scientific, Pittsburgh, Pa.) were cut to hollow frames and used as substrates. Suspended and aligned polystyrene (PS) nanofibers of varying diameters, spacing and orientation were deposited onto a rotating plastic hollow frame in criss-crossed patterns using the STEP platform at room temperature and 15% relative humidity. Using a custom solvent evaporation-based fusing method, the nodes of the criss-crossed patterned nanofibers were fused to form STEP nanonets with clamped boundary conditions. […]
To further evaluate the nanonet probe system for efficacy as a drug testing platform at high magnifications and temporal resolutions, we subjected cells to varying concentrations of the rho kinase (ROCK)-inhibitor Y27632 and monitored its force evolution over the same 30-minute period. […]

Assay [2] relates to C2C12 mouse myoblasts. Kind of assay: Stress relaxation test (step strain) fitted to the standard linear solid (SLS) model. The procedure:
Polymeric solutions of polystyrene (Scientific Polymer Products Inc., Ontario, N.Y., Mw: 2×10^6 g·mol^−1) dissolved in xylene (Fisher Scientific, Pittsburgh, Pa.) at 14% and 5% (w/w) were prepared. Plastic coverslips (Fisher Scientific, Pittsburgh, Pa.) were cut to hollow frames and used as substrates. Suspended and aligned polystyrene (PS) nanofibers of varying diameters, spacing and orientation were deposited onto a rotating plastic hollow frame in criss-crossed patterns using the STEP platform at room temperature and 15% relative humidity. […]
As cells experience forces, interactions between cytosol and cytoskeletal structures within their semi-permeable membrane elicit strain-rate dependent responses, but identifying physiological mechanisms for this behavior has proven difficult [Janmey, P. A., et al., J. Biol. Chem. 1994; 269:32503-13; Darling, E. M., et al., Biophys. […] Since viscoelasticity can alter the measured force at different strain rates, it is nonetheless an important parameter to qualitatively describe even without complete knowledge of the contribution of individual cellular components [Ketene, A. N., et al., Integr. […] Viscoelastic response is quantified through the classic stress relaxation test [Nagayama, K., et al., Med. Eng. […]

The subject of assay [3] is DBTRG-05MG glioma cells. Kind of assay: Outside-in force response to a probe deflecting the leading fiber on nanonets. The procedure:
(§1) According to one aspect of the methods described herein, using a highly aggressive glioma model (DBTRG-05MG), the platform technology using nanonets fused in crossed patterns manufactured using the non-electrospinning STEP technique serves to quantify single cell force modulation (both inside-out and outside-in) with and without the presence of a cytoskeleton altering drug (cytochalasin D) using suspended and aligned fiber networks (nanonets) beginning to represent the aligned glioma environment. This platform technology allows to measure contractile single cell forces exerted by glioma cells attached to and migrating along the fiber axis (inside-out). Further, the force response of glioma cells attached to two parallel fibers using a probe deflecting the leading fiber (outside-in) is measured. The forces are calculated using beam deflection within the elastic limit. […] The platform technology also allows for measuring changes in cell morphology, such as shape, area, etc. This technology allows the physiologically relevant aligned fiber networks used as ultra-sensitive force (˜nanoNewtons) probes for investigating drug response and efficacy in disease models at the single cell resolution.

Assay [4] deals with DBTRG-05MG glioma cells. Kind of assay: Inside-out contractile single cell force and spreading area on nanonets. As to the method:
as §1

Four compounds from patent US9753023B2, “Nanofiber grid and related methods” (Carnegie Mellon University, priority 2015, dated 2017) can be followed below.

“Also recorded” adds a separate entry of the source.

For the compound `C[C@@H](N)[C@H]1CC[C@H](C(=O)Nc2ccncc2)CC1` [Y27632], the reduction in force in the assay with C2C12 mouse myoblasts [1] (10 μM) is listed as 38%; in the assay with C2C12 mouse myoblasts [1] (100 μM), 57%. In the assay with C2C12 mouse myoblasts [1] (ROCK-inhibited cells versus cyclically-perturbed cells), the “reaching a steady-state force value” was “did not”.

Take `Cc1ccc2c(c1)C(=O)C1(O)CCN(c3ccccc3)C1=N2` (centres unmarked) [blebbistatin]: the “relative contributions of SLS parameters k1, k2 and η (normalized)” value in the assay with C2C12 mouse myoblasts [2] (50 μM blebbistatin, myosin-II disrupted) is recorded as “shifting in the relative contributions from k2 to η; also recorded: shift in major contribution from k2 to η”.

Consider `C=C1[C@@H](C)[C@H]2[C@H](Cc3ccccc3)NC(=O)[C@]23[C@H](OC(C)=O)/C=C/[C@@](C)(O)C(=O)[C@@H](C)C/C=C/[C@H]3[C@@H]1O` [cytochalasin D], for which, in the assay on DBTRG-05MG glioma cells [3], the “'outside-in' force response to external strain” value is listed as “decreasing”. Further, in the assay with DBTRG-05MG glioma cells [4], the “'inside-out' contractile forces” value is “decreasing” and the “spreading area of single glioma cells” value is “compromises the spreading area”.

In the case of `COC(=O)Nc1nc2ccc(C(=O)c3cccs3)cc2[nH]1` [nocodazole], the “relative contributions of SLS parameters k1, k2 and η (normalized)” value in the assay on C2C12 mouse myoblasts [2] (10 μM nocodazole, microtubules depolymerized) is recorded as “shifting in the relative contributions from k2 to η; also recorded: shift in major contribution from k2 to η”.
